# Values quoted from earlier work as cited in patent US10138195B2, “Organic compounds” (Givaudan, S. A., priority 2014, dated 2018).
# Where two headings read alike, the source gives them in different places.
# What was measured:
# [1] = tested on: reproductive organs of male dogs
# [2] = tested on: reproductive organs of male rats
# [3] = rats
# [4] = dogs
# [5] = tested on: glucose synthesis and fatty acid synthesis; settings: in vitro (McCune et al)
# male rats = male rats (Hunter et al.; Cagen et al.)
Effects in studies (primates),Effects in studies (guinea-pigs),Effects in studies (mice),Compound,Effects on the reproductive organs [1],Effects on the reproductive organs [2],Enzymatic degradation product [3],Enzymatic degradation product [4],Effect on glucose synthesis and fatty acid synthesis [5],Testicular effects (male rats)
No effects,No effects,No effects,"CC(C=O)Cc1ccc(C(C)(C)C)cc1 (stereo not drawn) [Lilial™, 3-(4-tert-butylphenyl)-2-methylpropanal]",toxic effects on the reproductive organs,toxic effects on the reproductive organs,enzymatically degraded in rats and dogs to tert-butyl benzoic acid (t-BBA),enzymatically degraded in rats and dogs to tert-butyl benzoic acid (t-BBA),,
,,,CC(C)(C)c1ccc(C(=O)O)cc1 [tert-butyl benzoic acid],,,,,inhibit glucose synthesis and fatty acid synthesis,cause testicular effects
